Results taken from patent US20230405063A1, “USE OF PROBIOTIC COMPONENT AND PHARMACEUTICAL COMPOSITION CONTAINING PROBIOTIC COMPONENT” (CHENGDU KUACHANGAOPU MEDICAL TECHNOLOGY CO., LTD., priority 2020, published 2023).

Experiments:
[1] = tested on: breast cancer 4T1 cells; assay: Short- and medium/long-term relative tumor proliferation rate in 4T1 tumor-bearing BALB/c mice (Example 10, Table 16); format: in vivo; details: intratumoral injection, dosed twice at interval of 7 days, 100 μl/mouse/time; for relative tumor proliferation rate R7 d: day 7 after last dose; for relative tumor proliferation rate R21 d: day 21 after last dose
Text: V=0.5×a×b^2, wherein a and b represent the length and width of the local lesion, respectively; Volume of the local lesion (e.g. tumor):
Local lesion (e.g., tumor) proliferation rate (R)=TV/CV×100, wherein TV and CV are the local lesion volumes in the study group and negative control group, respectively;
The method for determining the effect of combined drug administration in animal experiments was Burgi method (Burgi Y. Pharmacology; Drug actions and reactions. Cancerres. 1978, 38(2), 284-285). The Burgi method was modified by Zhengjun JIN (Zhengjun JIN, Equal probability and curve and “Q50”, Journal of the Second Shanghai Medical College; 1981, 1, 75-86) with q calculated as: q=EA+B/(EA+EB−EA×EB). In the following examples of the present invention, the combinational pharmaceutical efficacies (drug efficacies) of drug A and drug B co-administration was determined by ratio q of actual pharmaceutical efficacy (drug efficacy)/theoretical pharmaceutical efficacy (drug efficacy) according to Zhengjun JIN method, as follows.
BALB/c mice were used as experimental subjects, and breast cancer 4T1 cells were used as modeling cells. 0.5×10^6 cells/mouse were injected into the right axilla subcutaneously for transplantation tumor modeling, and the average tumor volume of successfully modeled nude mice was 107.4 mm^3. The model animals were randomly divided into 17 groups.
The drugs, formulated according to the method of Example 1, were administered according to Table 16. Each group was dosed twice with an interval of 7 days, and the injection volumes were 300 μl/mouse/time for groups 13 and 14, 100 μl/mouse/time for other groups. The drugs were administered by subaxillary administration of the right forelimb for group 15, and by intratumoral injection for other groups. Group 16 was administered sequentially (the first dose was aprobiotic semi-fluid-like component/cytotoxic drug/weak local acting compound, and the last dose was inactivated probiotics), while the other groups were administered with the same drug twice. On days 7 and 21 after the last dose, the tumor volumes of each group were measured (V7d, V21d), and the relative tumor proliferation rates (R7d, R21d) were calculated relative to the negative control group, respectively, so that the short-term therapeutic effectiveness (100%−R7d) and the medium- and long-term therapeutic effectiveness (100%−R21d) could be calculated, respectively.

[2] = tested on: breast cancer 4T1 cells; assay: Tumor inhibition rate r′10d, r′30d in 4T1 tumor-bearing BALB/c mice (Example 12, Table 18, series A); format: in vivo; details: series A modeled mice, intratumoral injection twice at 3-day interval, 50 ul/mouse/time; for Series A r′10d (tumor inhibition rate): 10th day after 1st administration; for Series A r′30d (tumor inhibition rate): 30th day after 1st administration
Experimental: (§1) BALB/c mice were used as experimental subjects, in which modeled animals were used as series A and unmodeled animals as series B. Breast cancer 4T1 cells were use as modeling cells for modeled animals. 0.25×10^5 cells/animal were injected into the right axilla subcutaneously for transplantation tumor modeling, and the average tumor volume of successfully modeled nude mice was 173.6 mm^3. The modeled animals were randomly divided into 18 groups, with 10 animals in each group, and the drugs according to Table 18 was administered via intratumoral injection. BALB/c mice were additionally taken as experimental subjects without modeling, and randomly divided into 18 groups, with 10 animals in each group, the drugs according to Table 18 was administered via intramuscular injection into the right hind thigh. All the study drugs comprising probiotic components were formulated as aqueous formulations according to the preparation method of Example 1, and the other drugs were formulated as aqueous solutions according to the existing well-known methods. Each group was administered twice at an interval of 3 days, and the dosage was 50 ul/mouse/time.
On the 30th day after the first administration, each group of series A and each group of series B were subcutaneous cell transplantation of 1×10^5 breast cancer 4T1 cells/mouse and 0.2×10^5 fibroblast 3T3 cells/mouse respectively to left anterior axilla and left posterior axilla. The tumor incidence rates of 4T1 cell transplantation (S4T1) and of 3T3 cell transplantation (S3T3) in each group were observed on the 10th day after the cell transplantation, wherein the tumor incidence rate S=(number of tumor-bearing animals/number of cell transplanted animals)×100%.

[3] = tested on: breast cancer 4T1 cells; assay: Tumor incidence rate after 4T1 cell transplantation (S4T1) on day 30 (Example 12, Table 18); format: in vivo, BALB/c mice; details: cells transplanted on 30th day, observed 10th day after transplantation; for Series A S4T1 (tumor incidence rate of 4T1 cell transplantation): series A modeled mice, intratumoral injection; for Series B S4T1 (tumor incidence rate of 4T1 cell transplantation): series B unmodeled mice, intramuscular injection into right hind thigh
Experimental: as §1, with “Breast cancer 4T1 cells were use as modeling cells for modeled animals. 0.25×10^5 cells/animal were injected into the right axilla subcutaneously for transplantation tumor modeling, and the average tumor volume of successfully modeled nude mice was 173.6 mm^3.” left out

[4] = tested on: fibroblast 3T3 cells; assay: Tumor incidence rate after 3T3 cell transplantation (S3T3) on day 30 (Example 12, Table 18); format: in vivo, BALB/c mice; details: cells transplanted on 30th day, observed 10th day after transplantation; for Series A S3T3 (tumor incidence rate of 3T3 cell transplantation): series A modeled mice, intratumoral injection; for Series B S3T3 (tumor incidence rate of 3T3 cell transplantation): series B unmodeled mice, intramuscular injection into right hind thigh
Experimental: as §1, with “Breast cancer 4T1 cells were use as modeling cells for modeled animals. 0.25×10^5 cells/animal were injected into the right axilla subcutaneously for transplantation tumor modeling, and the average tumor volume of successfully modeled nude mice was 173.6 mm^3.” left out

[5] = tested on: human pancreatic cancer cells (PANC-1); assay: Tumor inhibition in PANC-1 tumor-bearing nude mice, administration volume study (Example 4, Table 6); format: in vivo; details: intratumoral once
Experimental: Nude mice were used as experimental subjects, and human pancreatic cancer cells (PANC-1) were used as modeling cells, 1×10^5 cells/mouse were injected into the right axilla subcutaneously for transplantation tumor modeling, and the average tumor volume of successfully modeled nude mice was 213.1 mm^3. The model animals were randomly divided into 16 groups, and the drugs were administered intratumorally according to the drug components and administration volumes in Table 6, and each group was administered once. The drugs in groups 1-12 were prepared according to the method of Example 1, wherein the inactivated probiotics were heat-inactivated Saccharomyces boulardii, the probiotic water-insoluble component particles were β-glucan particles, the probiotic water-soluble component was disrupted Saccharomyces boulardii supernatant component, and the mixture of the probiotic water-insoluble component particles and water-soluble component (abbreviated as probiotic component mixture) was disrupted Saccharomyces boulardii, preparation method used was the same as that of Example 3. On the 7th day after drug administration, the animals were euthanized, and the tumor tissues were taken out after dissection to determine the tumor weight, and the tumor inhibition rate (r) was calculated relative to the negative control group.

[6] = injection volume 20 ul, administration volume/tumor volume 0.09, 7th day
[7] = injection volume 50 ul, administration volume/tumor volume 0.23, 7th day
[8] = injection volume 100 ul, administration volume/tumor volume 0.47, 7th day

Compound | relative tumor proliferation rate R7 d [1] [%] | relative tumor proliferation rate R21 d [1] [%] | Series A r′10d (tumor inhibition rate) [2] [%] | Series A r′30d (tumor inhibition rate) [2] [%] | Series A S4T1 (tumor incidence rate of 4T1 cell transplantation) [3] [%] | Series B S4T1 (tumor incidence rate of 4T1 cell transplantation) [3] [%] | Series A S3T3 (tumor incidence rate of 3T3 cell transplantation) [4] [%] | Series B S3T3 (tumor incidence rate of 3T3 cell transplantation) [4] [%] | Tumor inhibition rate r [5, 6] [%] | Tumor weight (x ± s) [5, 6] [g] | Tumor inhibition rate r [5, 7] [%] | Tumor weight (x ± s) [5, 7] [g] | Tumor inhibition rate r [5, 8] [%] | Tumor weight (x ± s) [5, 8] [g]
O=c1[nH]cc(F)c(=O)[nH]1 [1% 5-fluorouracil, 5-fluorouracil] | 51 | 93 | 38.5 | 6.1 | 100 | 100 | 100 | 100 | – | – | – | – | – | –
CCO [75% ethanol, ethanol] | 47 | 95 | 42.1 | 3.2 | 100 | 100 | 100 | 100 | 6.2 | 0.257 ± 0.110 | 20.3 | 0.218 ± 0.115 | 31.7 | 0.187 ± 0.064
